Reference: PubChem BioAssay (NCI)
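The compound was tested at five concentrations on cells cultured in 96-well plates, with a 48-hour exposure period. At the GI50, growth is halved. TGI: total growth inhibition.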

What was measured:
Assay in all cases: DTP human tumour cell line panel, 48 h
786-0 renal = system: 786-0 renal
CAKI-1 renal = system: CAKI-1 renal
HCT-116 colon = system: HCT-116 colon
M14 melanoma = system: M14 melanoma
MOLT-4 leukemia = system: MOLT-4 leukemia
NCI-H460 lung = system: NCI-H460 lung
RXF 393 renal = system: RXF 393 renal
SK-MEL-2 melanoma = system: SK-MEL-2 melanoma
SN12C renal = system: SN12C renal
U251 CNS = system: U251 CNS

SMILES	GI50 (786-0 renal) [µM]	TGI (786-0 renal) [µM]	GI50 (CAKI-1 renal) [µM]	TGI (CAKI-1 renal) [µM]	GI50 (HCT-116 colon) [µM]	TGI (HCT-116 colon) [µM]	GI50 (M14 melanoma) [µM]	TGI (M14 melanoma) [µM]	GI50 (MOLT-4 leukemia) [µM]	TGI (MOLT-4 leukemia) [µM]	GI50 (NCI-H460 lung) [µM]	TGI (NCI-H460 lung) [µM]	GI50 (RXF 393 renal) [µM]	TGI (RXF 393 renal) [µM]	GI50 (SK-MEL-2 melanoma) [µM]	TGI (SK-MEL-2 melanoma) [µM]	GI50 (SN12C renal) [µM]	TGI (SN12C renal) [µM]	GI50 (U251 CNS) [µM]	TGI (U251 CNS) [µM]
OCc1ccc(N2CCOCC2)cc1Cl	> 100	> 100	> 100	> 100	28.6	> 100	> 100	> 100	> 100	> 100	30.9	> 100	> 79.1	> 100	> 100	> 100	> 100	> 100	> 72.2	> 100
CC(C)Oc1ccc(C(=O)Cn2ccnc2)cc1-n1c(CN2CCN(C(=O)COc3ccc(Cl)cc3)CC2)nc2ccccc2c1=O	1.3	5.48	4.04	9.25	8.68	24.9	14	32.6	7.55	> 71.8	16.8	33.7	7.48	22.2	17.6	38.5	14.6	33.6	13.2	30.2
Cn1c(=O)nc2n(-c3ccc(Cl)c(C(F)(F)F)c3)c3ccccc3nc-2c1=O		> 100		> 100		> 79.4		> 91.3		> 100		> 100		> 100		> 100		> 100		> 100
C/C1=C\CC[C@@](C)(O)[C@@H]2C[C@H](CC/C(C)=C/CC1)C1(CC1)C(=O)O2	44.6	> 100	22.2	50.2	24.2	54.1	32.7	91.6	15.5	38.2	51.5	> 100	> 100	> 100	41.2	> 100	21.5	56.2	23	57.1
Nc1cc(-c2ccc(Cl)cc2)nn1-c1nnc(/C=C/c2ccco2)c(=O)[nH]1	5.04	23.9	0.842	7.04	3.15	15.8	3.41	30.6	3.17	> 43	2.15	15.3	9.91	34.7	19	> 88.3	18.5	> 100	3	37.7
CCn1c(-c2nonc2N)nc2ccncc21	> 25	> 25	> 25	> 25	> 25	> 25	> 25	> 25	> 25	> 25	> 25	> 25	> 25	> 25	> 25	> 25	> 25	> 25	> 25	> 25
CCCCCCC(C)CCCCCCCCCCC(=O)O (stereo not given)		> 100		> 100		> 100		> 100		> 100		> 100		> 100		> 100		> 100		> 100
COC(=O)c1ccc2c(c1)C(=O)c1c-2n(CCCN=[N+]=[N-])c(=O)c2cc([N+](=O)[O-])ccc12	25.1	79	> 100	> 100	47.4	> 100	> 100	> 100	30.2	> 100	38.1	> 100	37.3	> 100	27	82.5	> 100	> 100	18	48.8
CN(C)C(=S)Nc1nnc(Nc2ccccc2)s1		> 100		> 100		> 100		> 100		> 100		> 100		> 100		> 100		> 100		> 100
CC1OC(c2ccc3c(c2O)C(=O)C2=C(C3=O)C3(O)C(=O)CC(C)(O)CC3(O)C=C2)CC(O)C1O (stereo not given)		33.6		19.7		17.5		30.7		15.3		> 64.9		26.8		42.4		28.2		31.4
COc1ccc(C2Oc3c(c(O)cc4c3[C@H](c3ccc(O)cc3O)[C@H](O)C(c3ccc(O)c(O)c3)O4)C[C@@H]2O)cc1O (stereo not given in full)		> 100		> 100		> 100		> 100		> 100		> 100		> 100		> 100		> 100		> 100
Cc1cc(C)n(C2=NS(=O)(=O)c3ccccc3N2C)n1		> 100		> 100		> 100		> 100		> 100		> 100		> 100		> 100		> 100		> 100
